This is an account of results in US9388215B2, “Compositions and methods of using islet neogenesis peptides and analogs thereof” (SHENZHEN HIGHTIDE BIOPHARMACEUTICAL, LTD., priority 2013, dated 2016).

Data set [1] can be described thus: Pharmacokinetics in SD rats after single subcutaneous dose (Example X). Type of data set: in vivo, rat. To be noted: plasma, sc, male Sprague-Dawley rat, subcutaneous, 25 mg/kg; for AUC(0-t): read-out: AUC(0-t); for AUC(0-inf): read-out: AUC(0-∞); for Cmax: read-out: Cmax. How it is done: After 7 days acclimation, a total of 15 male Sprague-Dawley (SD) rats (body weight: 230 to 270 g) in good health from Sino-British SIPPR/BK Lab Animal Ltd, Shanghai, were used in the study. All peptides, Peptide 1, Peptide 12, Peptide 16, Peptide 29 or Peptide 31, were dissolved in sterile normal saline respectively to yield the desired final concentrations and were administered via single subcutaneous (sc) dose.
Three animals in each group were used for blood collection at the time point of 5 min, 15 min, 30 min, 1 h, 2 h, 4 h, 6 h, 8 h and 24 h post-dose. Blood samples (approximately 400 μL) were collected and placed into tubes containing EDTA-K2 (dipotassium ethylene diamine tetraacetic acid) and centrifuged at 8000 rpm for 6 minutes at 4° C. to separate plasma from the samples. The resulting plasma was stored frozen at −80° C. until being analyzed.
Plasma concentrations of peptides were determined using tandem mass spectrometry (LC-MS/MS) analysis. A non-compartmental module of WinNonlin® Professional 5.2 (Pharsight; St. Louis Mo.) was used to calculate PK parameters. AUC(0-t) represents area under the curve from the time of dosing to the time of the last observation, the AUC(0-∞) represents area under the curve from the time of dosing to infinity, and the Cmax represents maximum concentration detected.

Another data set deals with pancreatic islets. Description: Glucose-stimulated insulin secretion (GSIS) of isolated islets. The format is cell-based, rat. The conditions noted are these: 12.0 mM glucose; 10 μg/mL peptide or 100 nM GLP-1; 60 min; FIG. 8. How it is done:
The pancreases were procured from male adult Sprague-Dawley (SD) rats. After 7 days acclimation, the animals were sacrificed by cervical dislocation and the entire pancreas was removed and digested with collagenase to isolate islets. After digestion, islets were maintained at 37° C. in RPMI 1640 (Carlsbad Calif., USA) pH 7.4, containing 10% (v/v) fetal calf serum, 1% penicillin/streptomycin, and 10 mM glucose in a humid atmosphere (5% CO2/95% O2), without the addition of any compound (control), or with the addition of 100 nM glucagon like peptide-1 (GLP-1); or 10 μg/mL Peptide 1, Peptide 12, or Peptide 16, as summarized in Table 4 below. Cultured islets were rinsed in Krebs-Ringer bicarbonate buffer (KRB), pH 7.4, previously gassed with a mixture of CO2/O2 (5/95%), and pre-incubated in 1.0 ml of KRB containing 0.5% (w/v) BSA and 1.5 mM glucose at 37° C. for 45 min. After this period, groups of 5 islets were incubated in 0.6 ml KRB with the addition of 1.5 or 12.0 mM glucose, with or without the addition of peptides for 60 min. At the end of the incubation period, aliquots of the medium were collected for insulin quantitation.

The nature of data set [2]: Peptide stability in mouse plasma. To be noted: 100 μg/mL, 37° C.; FIG. 3, 5, 14. The format is in vitro ADME. Here is the method:
(§1) The stability of peptides was also tested in mouse and human plasma. Briefly, a certain amount of peptides and eucatropine powder (positive control) was accurately weighed. Test compounds were dissolved in 50% methanol-water solution and diluted to 20 mg/mL, and eucatropine was dissolved in dimethylsulfoxide (DMSO) and diluted to 10 mM, as a stock solution. Eucatropine stock solution was diluted to 0.2 mM with DMSO as a working solution. A stop reagent was prepared containing 200 ng/mL midazolam and tolbutamide in acetonitrile. A volume of 300 μL of stop solution was added to each well of a 96-well deep-well plate placed on ice beforehand.
(§2) For the stability studies, peptides and eucatropine were spiked into plasma respectively, mixed well, and then 100 μL of each mixture solution was transferred into the pre-cooled stop reagent as 0 time point sample. The remaining mixtures were incubated in a 37° C. water bath with shaking at 100 rpm (n=2). The final incubation concentration was […] for eucatropine and 100 μg/mL for all test compounds.
(§3) At desired time points, 100 μL of incubation mixture was transferred to the stop reagent to precipitate proteins. Samples were vortexed and centrifuged at RCF 5000×g for 10 minutes, and supernatant was transferred to a test plate. The samples were analyzed by LC-MS/MS.
(§4) Slope was calculated by plotting the natural logarithm of the percentage of remaining amount of test compounds and time, and T1/2 was calculated in accordance with the following formula.
For stability in mouse plasma, the incubation time was 0, 5, 15, 30 and 60 min for Peptide 1 and eucatropine; 0, 15, 30, 60, 120, 240 and 480 min for Peptide 12, Peptide 16 and Peptide 29.
In another stability study in mouse plasma, the incubation time was 0, 30, 60 and 120 min for Peptide 2 and eucatropine; 0, 30, 60, 120, 240 and 960 min for Peptide 52 and Peptide 54.
as §1, with “tested in rat, mouse and” for “tested in mouse and”
For the stability studies, peptides and eucatropine were spiked into plasma respectively, mixed well, and then 100 μL of each mixture solution was transferred into the pre-cooled stop reagent as 0 time point sample. The remaining mixtures were incubated in a 37° C. water bath with shaking at 100 rpm (n=2). The final incubation concentration was 1 μM for eucatropine and 100 μg/mL for all test compounds.
For stability in mouse plasma, the incubation time was 0, 15, 30, 60 and 120 min for Peptide 1 and eucatropine; 0, 15, 30, 60, 120, and 240 min for Peptide 31.

Data set [3] in a line: Peptide stability in human plasma. The format is in vitro ADME. The conditions noted are these: 100 μg/mL, 37° C.; FIG. 4, 15. Here is the method:
as §1, §2, §3, §4
For stability in human plasma, the incubation time was 0, 30, 60 and 120 min for Peptide 1, Peptide 12, Peptide 16 and eucatropine.
The stability of peptides was also tested in rat, mouse and human plasma. Briefly, a certain amount of peptides and eucatropine powder (positive control) was accurately weighed. Test compounds were dissolved in 50% methanol-water solution and diluted to 20 mg/mL, and eucatropine was dissolved in dimethylsulfoxide (DMSO) and diluted to 10 mM, as a stock solution. Eucatropine stock solution was diluted to 0.2 mM with DMSO as a working solution. […]

The format of data set [4] is physicochemical. To be noted: pH 5. Here is the method:
Peptide stability in buffers was tested for INGAP-PP and selected analogs. 10 mg/mL of Peptide 1, Peptide 12, Peptide 16, Peptide 29 or Peptide 31 was dissolved in isotonic buffers with pH ranging from 4.0 to 8.0. […] Peptide 12 and Peptide 29 were stable in an isotonic phosphate buffer (pH 7.4) for more than 90 days at 4° C. (there was no sign of degradation at 90 days sample check point), and 60 days at 25° C.

Regarding “H-IGLHDPSHGTLPNGS-OH [Peptide 1, H-IGLHDPSHGTLPNGS-OH, reference compound]”, in data set [1], the AUC(0-t) (as a rule, exposure summed from dosing to a finite time, without extrapolation to infinity) came to 294 ± 125 ng·h/mL; the AUC(0-inf) was found to be 298 ± 122 ng·h/mL; the Cmax (as a rule, the maximum level reached in the sampled fluid or tissue) is 1190 ± 610 ng/mL. Moreover, the “glucose-stimulated insulin release vs islets without peptide” value in the data set on pancreatic islets was “no stimulation was observed”.
As for “Ac-IGLHDPSHGTLPNGS-NH2 [Peptide 31, Ac-IGLHDPSHGTLPNGS-NH2]”, the “stability in mouse plasma” value in data set [2] is “exhibited good stability in mouse plasma and was more stable than INGAP-PP”. Besides, in data set [3], the “stability in human plasma” value is “exhibited good stability in human plasma and were significantly more stable than INGAP-PP”. Moreover, in data set [4], the “time stable in isotonic acetate buffer (pH 5.0) at 4° C.” value is on record as “up to 90 days” and the “time stable in isotonic acetate buffer (pH 5.0) at 25° C.” value is “less than 7 days”. For the same substance, in data set [1], the AUC(0-t) was determined as 15600 ± 1530 ng·h/mL, the AUC(0-inf) amounted to 15600 ± 1530 ng·h/mL and the Cmax came out at 26000 ± 3100 ng/mL.
For “Ac-IGLHDPSHGTLPNGS-OH [Peptide 16, Ac-IGLHDPSHGTLPNGS-OH]”, the “stability in mouse plasma” value in data set [2] is “exhibited good stability in mouse plasma and were more stable than INGAP-PP”. Also, in data set [3], the “stability in human plasma” value is “exhibited good stability in human plasma and were significantly more stable than INGAP-PP”. Also, in data set [4], the “time stable in isotonic acetate buffer (pH 5.0) at 4° C.” value is listed as “up to 90 days” and the “time stable in isotonic acetate buffer (pH 5.0) at 25° C.” value is on record as “less than 7 days”. For the same substance, in data set [1], the AUC(0-t) turned out to be 11200 ± 1880 ng·h/mL, the AUC(0-inf) was 11200 ± 1880 ng·h/mL and the Cmax was 22100 ± 5870 ng/mL. The “glucose-stimulated insulin release vs islets without peptide” value with pancreatic islets was “released significantly more insulin than those cultured without the addition of peptides”.
